Measurements: US4997926A, “Deaminase-stable anti-retroviral 2-halo-2',3'-dideoxy” (Scripps Clinic and Research Foundation, priority 1987, dated 1991)

Key:
wild type CEM T cells = format: in vitro ADME, human
Procedure: Extracts of wild type CEM cells that had been incubated with 3 uM [8-^3 H]-2-chloro-2',3'-dideoxyadenosine for 4 hours were fractionated by ion exchange high performance liquid chromatography (HPLC). Detected radioactive peaks corresponded to the free deoxynucleoside and to the 5'-mono-, di- and tri-phosphates, respectively. The total intracellular 2-chloro-2',3'-dideoxynucleotide content was 30 pmols/10^8 cells. The identity of the peaks was confirmed by enzymatic dephosphorylation, and reverse phase HPLC in the presence of authentic 2-chloro-2',3'-dideoxyadenosine.
^1 Human CEM T cells, or variants deficient in either deoxycytidine
kinase, or deoxycytidine kinase plus adenosine kinase, were incubated at
density of 5 × 10^7 cells/ml in medium containing 3 uM [8^3
H2-chloro-2',3dideoxyadenosine. After 4 hours, the nucleotides in the
methanolsoluble extracts were determined after separation by HPLC, as
described in the Materials and Methods.
The human T lymphoblastoid cell line, CCRF-CEM, and mutants deficient in either deoxycytidine kinase (clone AraC-8D), or deoxycytidine kinase plus adenosine kinase (clone AraC-8DM10-5) were obtained and propagated as described previously [Foley et al., (1965) Cancer, 18:552-529 and Hershfield et al., (1982) J. Biol. Chem., 257:6380-6386]. For metabolic studies, the cells were cultured in RPMI 1640 medium supplemented with 2 mM L-glutamine and 10 percent fetal bovine serum at a density of 2×10^7 cells/ml in the presence of radiolabelled dideoxynucleosides, as indicated earlier. Some cultures were pre-incubatedfor 30 minutes either with 5 uM 2'-deoxycoformycin or 50 uM coformycin. After 4 hours of incubation the cells were harvested by centrifugation.
The cell pellets were washed with Hank's balanced salt solution at 4 degrees C., and extracted with 1 ml 60 percent methanol/water at -20 degrees C. for 10 minutes. Initial studies included 2',3'-dideoxyadenosine5'-triphosphate as an internal recovery marker. The nucleotides were fractionated by high performance liquid chromatography on an Whatman Partisil-10 SAX column, applying a gradient of zero to 100 percent buffer B in buffer A. Buffer A was 7 mM potassium phosphate pH 3.4. Buffer B was 0.5 M potassium phosphate, pH 3.4, one M KCl. The flow rate was 1.5 ml/minute, 1 minute fractions were collected. Buffer A was used alone for the first ten fractions after which elution with Buffer B began and was continued through fraction thirty, after which the eluting buffer was completely Buffer B. The nucleoside was eluted by about fraction six. The monophosphate eluted between about fractions fifteen and eighteen, the diphosphate between about fractions twenty-seven and thirty-two, and the triphosphate eluted between about fractions fifty-one and about sixty-five.

[1] = system: HIV (strain LAV) in MT-2 cells; experiment: HIV-induced syncytia formation and cytopathic effect in MT-2 T lymphoblasts; format: cell-based
From the text: The anti-HIV activities of the 2-halo-2',3'-dideoxyadenosine derivatives were first assayed in human MT-2 T lymphoblasts, as this system readily permitted a differentiation between anti-retroviral and anti-proliferativeeffects Exposure of the MT-2 T cell line to cell-free HIV led to the formation of syncytia within 4-5 days, and to a parallel decline in cell viability.
The MT-2 human lstoid cell line, which carries the human T cell leukemia virus type I (HTLV-1) genome, was used to assess the cytopathic effects of HIV, and the protective effects of the various nucleosides. […] The formation of syncytia, with resultant cell death, depends upon the expression on the cell-surface of the HIV envelope glycoproteins gp160, gp120, and gp4l, by cells that bear the differentiation antigen CD4 (T4) [Lipson et al., (1986) Nature, 323:725-728].
In the reported studies, the formation of syncytia in the MT-2 cell line (provided by J. Riggs and M. Aschen, State Department of Public Health, Berkelye, CA) was a sensitive and reproducible system to follow both the course of HIV infection and the potential cytotoxic effects of the added nucleosides. HIV (strain LAV) maintained in CEM cell culture was obtained from F. Barre-Sinoussi, J. C. Chermann and L. Montagnier (Institute Pasteur, Paris).
Cell-free virus was prepared by mixing LAV-infected CEM cells with two liters of 2×10^6 cells/ml of uninfected CEM cells at a ratio of 1:20 and incubating at 37 degrees C. for six days at which time, more than 80 percent of the cells expressed the p24 (gag) antigen using mouse monoclonal antibody M33, obtained from F. Vernoese di Marzo and M. Sarngadharan (Litton Bionetics, Rockville, Md.) using an enzyme immunofiltration staining method [Cleveland et al. (1987) J. Clin. Microbiol., 25:416-420]. The cells were centrifuged at 750×g for 10 minutes. The clarified supernatant was then titered by terminal dilution assay in 96 well microtiter plates containing 6×10^4 MT-2 cells per well suspended in a final volume of 200 ul RPMI 1640 medium containing 10 percent fetal bovine serum, 2 mM glutamine and […].
When HIV was added to this microtiter culture system at a multiplicity of infection of 0.1 TCID50 /cell, multinucleated giant cells appeared within 48 hours, and the majority of cells were fused in syncytia structures by day 4. The appearance of giant cells correlated with detectable antigens and RNA of HIV.
For measurement of antiviral activity, different concentrations of the assayed compounds were added to duplicate wells at the time of infection, and the cultures were incubated at 37 degrees C. After 4 and 5 days, the numbers of syncytia per culture were enumerated microscopically.
The results presented herein were confirmed in five separate experiments. Controls containing uninfected and infected cells with and without anti-retroviral nucleosides were included.
The results were expressed in semi-quantitative units that take into account the growth pattern of MT-2, and the ability of the HIV to cause both syncytia formation and cell death. In this unit system, 1 corresponds to 1-3 syncytia per well and no change in cell count compared to control cultures lacking virus; 2 corresponds to 3-10 syncytia per well and up to 20 percent cell death; 3 corresponds to 10-30 syncytia per well and a 20-70 percent drop in cell viability; 4 corresponds to more than 30 syncytia well and at least a 70 percent fall in the viable cell count.

Row | Compound | 2',3'-dideoxyadenosine uptake (wild type CEM T cells) | cytopathic effect of HIV / virus-induced cell killing [1] | intracellular dideoxynucleotide content after 4 hours (wild type CEM T cells; CEM 2 × 10^7 cells/ml, 37 degrees C., 3 uM 2-Cl-ddA or 2 uM ddA) [pmols/10^8 cells] | Nucleotide Formed, Diphosphate (wild type CEM T cells; Wild Type CEM, 3 uM, 4 hours) [pmols/10^8 cells/4 hrs] | Nucleotide Formed, Triphosphate (wild type CEM T cells; Wild Type CEM, 3 uM, 4 hours) [pmols/10^8 cells/4 hrs] | total intracellular 2-chloro-2',3'-dideoxynucleotide content (wild type CEM T cells; Wild Type CEM, 3 uM, 4 hours) [pmols/10^8 cells] | Nucleotide Formed, Monophosphate (wild type CEM T cells; Wild Type CEM, 3 uM, 4 hours, 5 × 10^7 cells/ml) [pmols/10^8 cells/4 hrs] | HIV-induced syncytia formation ([1]; 10 uM)
1 | Nc1ncnc2c1ncn2[C@H]1CC[C@@H](CO)O1 [2',3'-dideoxyadenosine, reference compound] | 20-30 pmols/10^8 cells | inhibit the cytopathic effect of HIV | – | – | – | – | – | –
2 | Nc1nc(Cl)nc2c1ncn2[C@H]1CC[C@@H](CO)O1 [2-chloro-2',3'-dideoxyadenosine] | – | – | ~30 | 2.8 | 24.3 | 30 | 3.0 | blocked syncytia formation
